# Literature values in patent US20260335284A1, “STABLE MITOMYCIN CONCENTRATES” (STEPS BIOSCIENCES, INC., priority 2022, published 2026).
# Conditions: EP 0415430A1
smiles,measurement,setting,value
"CO[C@@]12[C@H](COC(N)=O)C3=C(C(=O)C(C)=C(N)C3=O)N1C[C@@H]1N[C@@H]12 [MMC, Mitomycin C]",Stability in water and in PEG,in water and also in PEG,very unstable
same,Stability in PG with finite percentage of water (5%),solutions at 5 mg/mL,most stable
